Drawing on patent US9694016B2 (Novartis AG, priority 2013, dated 2017), this text covers IC50 for 23 compounds.

In the first assay the target is b-Raf (V600E) (Homo sapiens (Human), UniProt P15056, V600E). The settings on record: read-out: b-Raf IC-50.
b-Raf (V600E), sequence (P15056 whole entry V600E): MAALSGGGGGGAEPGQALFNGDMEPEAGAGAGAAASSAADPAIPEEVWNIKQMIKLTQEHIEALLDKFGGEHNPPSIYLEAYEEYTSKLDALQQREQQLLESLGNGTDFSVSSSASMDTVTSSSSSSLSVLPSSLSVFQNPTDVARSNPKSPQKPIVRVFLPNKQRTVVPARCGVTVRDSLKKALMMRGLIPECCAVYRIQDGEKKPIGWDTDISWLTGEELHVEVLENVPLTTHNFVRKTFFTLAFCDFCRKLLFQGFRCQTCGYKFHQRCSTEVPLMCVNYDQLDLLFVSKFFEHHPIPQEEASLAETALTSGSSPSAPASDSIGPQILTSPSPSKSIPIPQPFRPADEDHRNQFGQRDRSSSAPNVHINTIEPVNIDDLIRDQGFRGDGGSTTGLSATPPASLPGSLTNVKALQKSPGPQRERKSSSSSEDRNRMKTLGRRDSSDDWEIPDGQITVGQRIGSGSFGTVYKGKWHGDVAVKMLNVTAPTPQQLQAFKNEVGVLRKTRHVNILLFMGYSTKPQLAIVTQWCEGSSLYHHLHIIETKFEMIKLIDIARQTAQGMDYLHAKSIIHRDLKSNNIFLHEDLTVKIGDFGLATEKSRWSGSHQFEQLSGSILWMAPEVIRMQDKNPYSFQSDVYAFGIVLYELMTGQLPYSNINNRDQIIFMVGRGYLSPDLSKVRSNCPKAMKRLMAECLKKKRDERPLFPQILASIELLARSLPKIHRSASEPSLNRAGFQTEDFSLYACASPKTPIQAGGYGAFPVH
For the compound `CCOc1ncc(-c2cc(NC(=O)c3cnnc(C(F)(F)F)c3)cnc2C)cc1N1C2CCC1COC2` [Example 282, N-(5′-(3-oxa-8-azabicyclo[3.2.1]octan-8-yl)-6′-ethoxy-2-methyl-[3,3′-bipyridin]-5-yl)-6-(trifluoromethyl)pyridazine-4-carboxamide], the IC50 turned out to be 53 nM.

The same assay, now with this note: read-out: b-Raf IC-50; AlphaScreen, 60 min pre-incubation, 3 hours reaction.
Take `CCC(F)(F)c1cc(C(=O)Nc2cnc(C)c(-c3cc(N4CCOCC4)n4nccc4n3)c2)ccn1` [Example 800, 2-(1,1-difluoropropyl)-N-(6-methyl-5-(7-morpholinopyrazolo[1,5-a]pyrimidin-5-yl)pyridin-3-yl)isonicotinamide]: the IC50 amounted to 2 nM.
On the same count and under the same terms, in the case of `CCNc1nc(-c2cc(C(=O)Nc3cccc(C(C)(C)C#N)c3)ccc2C)cc(N2CCOCC2)n1` [Example 732, N-(3-(2-cyanopropan-2-yl)phenyl)-3-(2-(ethylamino)-6-morpholinopyrimidin-4-yl)-4-methylbenzamide] it was 2.2 nM.
On to `Cc1ncc(NC(=O)c2ccnc(C(C)(C)O)c2)cc1-c1cc(N2CCOCC2)n(C)c(=O)c1` [Example 501, N-(1′,2-dimethyl-6′-morpholino-2′-oxo-1′,2′-dihydro-[3,4′-bipyridin]-5-yl)-2-(2-hydroxypropan-2-yl)isonicotinamide], for which the IC50 is 32.2 nM.
`Cc1ccc(NC(=O)c2cccc(C(F)(F)F)c2)cc1-c1nc(N2CCOCC2)c2ncsc2n1` [Example 839, N-(4-methyl-3-(7-morpholinothiazolo[5,4-d]pyrimidin-5-yl)phenyl)-3-(trifluoromethyl)benzamide]: the IC50 came out at 0.9 nM.
Same read-out and setting: in the case of `Cc1ncc(NC(=O)c2ccnc(C(C)(C)F)c2)cc1-c1cc(N2CCOCC2)n2nccc2n1` [Example 790, 2-(2-fluoropropan-2-yl)-N-(6-methyl-5-(7-morpholinopyrazolo[1,5-a]pyrimidin-5-yl)pyridin-3-yl)isonicotinamide] it was 3.5 nM; in that of `Cc1ccc(NC(=O)c2cccc(C(F)(F)F)c2)cc1-c1nc(N2CCOCC2)c2[nH]ccc2n1` [Example 830, N-(4-methyl-3-(4-morpholino-5H-pyrrolo[3,2-d]pyrimidin-2-yl)phenyl)-3-(trifluoromethyl)benzamide], 0.6 nM; in that of `Cc1ccc(NC(=O)c2ccnc(C(C)(F)F)c2)cc1-c1cc(N2CCOCC2)c(OC2CCOCC2)nn1` [Example 579, 2-(1,1-difluoroethyl)-N-(4-methyl-3-(5-morpholino-6-((tetrahydro-2H-pyran-4-yl)oxy)pyridazin-3-yl)phenyl)isonicotinamide], 0.6 nM.
With `Cc1ncc(NC(=O)c2ccnc(S(C)(=O)=O)c2)cc1-c1cc(N2CCOCC2)c(OC2CCOCC2)nn1` [Example 632, N-(6-methyl-5-(5-morpholino-6-((tetrahydro-2H-pyran-4-yl)oxy)pyridazin-3-yl)pyridin-3-yl)-2-(methylsulfonyl)isonicotinamide], the IC50 was 7.5 nM.
Take `CCN(C)c1cc(C(=O)Nc2ccc(C)c(-c3cc(N4CCOCC4)c(=O)n(C)c3)c2)ccn1` [Example 453, 2-(ethyl(methyl)amino)-N-(4-methyl-3-(1-methyl-5-morpholino-6-oxo-1,6-dihydropyridin-3-yl)phenyl)isonicotinamide]: the IC50 stood at 4.3 nM.
`CCOc1nnc(-c2cc(NC(=O)c3ccnc(S(C)(=O)=O)c3)cnc2C)cc1N1CCOCC1` [Example 615, N-(5-(6-ethoxy-5-morpholinopyridazin-3-yl)-6-methylpyridin-3-yl)-2-(methylsulfonyl)isonicotinamide]: the IC50 was found to be 12.3 nM.
Same read-out and setting: then `Cc1ccc(NC(=O)c2ccnc(C(C)(C)C#N)c2)cc1-c1cc(N2CCOCC2)nc(NCCO)n1` [Example 734, 2-(2-cyanopropan-2-yl)-N-(3-(2-((2-hydroxyethyl)amino)-6-morpholinopyrimidin-4-yl)-4-methylphenyl)isonicotinamide], with 6.9 nM.

The assay is the same for the next values; noted with them: read-out: b-Raf IC-50; AlphaScreen, 60 min pre-incubation, reaction 3 hours at room temperature.
For `Cc1ncc(NC(=O)c2ccnc(C(C)(C)F)c2)cc1-c1cnc(OC[C@H](C)O)c(N2CCOCC2)c1` [Example 990, (S)-2-(2-fluoropropan-2-yl)-N-(6′-(2-hydroxypropoxy)-2-methyl-5-morpholino-[3,3′-bipyridin]-5-yl)isonicotinamide], the IC50 was 5.41 nM.
The same measure, in the same setting: in the case of `Cc1ccc(NC(=O)c2ccnc(C(C)C)c2)cc1-c1cc(N2CCOCC2)nc(N2CC(O)C2)c1` [Example 1069, N-(3-(2-(3-hydroxyazetidin-1-yl)-6-morpholinopyridin-4-yl)-4-methylphenyl)-2-isopropylisonicotinamide] it was 2.64 nM.
Still for that read-out and setting: in the case of `Cc1ccc(NC(=O)c2ccnc(C(F)F)c2)cc1-c1cc(N2CCOCC2)c2nccn2c1` [Example 850, 2-(difluoromethyl)-N-(4-methyl-3-(8-morpholinoimidazo[1,2-a]pyridin-6-yl)phenyl)isonicotinamide] it was 0.6 nM.
Still for that read-out and setting: then `Cc1ncc(NC(=O)c2cc(C(C)(C)F)ccn2)cc1-c1cnc(OC2CC3(COC3)C2)c(N2CCOCC2)c1` [Example 968, N-(6′-(2-oxaspiro[3.3]heptan-6-yloxy)-2-methyl-5′-morpholino-[3,3′-bipyridin]-5-yl)-4-(2-fluoropropan-2-yl)picolinamide], with 3.72 nM; and `Cc1ncc(NC(=O)c2cccc(C(F)(F)F)c2)cc1-c1cc(N2CCNCC2)nc(N2CCOCC2)c1` [Example 1129, N-(2-methyl-2′-morpholino-6′-(piperazin-1-yl)-[3,4′-bipyridin]-5-yl)-3-(trifluoromethyl)benzamide], with 4.64 nM; and `CCOc1cc(-c2cc(NC(=O)c3ccnc(C(C)(F)F)c3)cnc2C)cc(N2CCOCC2)n1` [Example 1143, 2-(1,1-difluoroethyl)-N-(2′-ethoxy-2-methyl-6′-morpholino-[3,4′-bipyridin]-5-yl)isonicotinamide], with 1.81 nM.
Take `Cc1ncc(NC(=O)c2ccc(C#N)c(C(F)(F)F)c2)cc1-c1cc(N2CCOCC2)c2nccn2c1` [Example 877, 4-cyano-N-(6-methyl-5-(8-morpholinoimidazo[1,2-a]pyridin-6-yl)pyridin-3-yl)-3-(trifluoromethyl)benzamide]: the IC50 stood at 6.5 nM.

The assay is the same for the next values; noted with them: read-out: b-Raf IC-50; Table 2; AlphaScreen, 3 hours reaction.
Turning to `CCn1cc(-c2cc(NC(=O)c3ccnc(C(C)(C)C#N)c3)ccc2C)cc(N2CCOCC2)c1=O` [Example 160, 2-(2-cyanopropan-2-yl)-N-(3-(1-ethyl-5-morpholino-6-oxo-1,6-dihydropyridin-3-yl)-4-methylphenyl)isonicotinamide], the IC50 was found to be 10.6 nM.
Still for that read-out and setting: in the case of `Cc1ccc(NC(=O)c2cncc(N(C)C)c2)cc1-c1cc(N2CCOCC2)nc(N2CCOCC2)n1` [Example 18, 5-(dimethylamino)-N-(3-(2,6-dimorpholinopyrimidin-4-yl)-4-methylphenyl)nicotinamide] it was 0.5 nM.
As for `Cc1cc(C(=O)Nc2ccc(C)c(-c3cc(N4CCOCC4)c(=O)n(C)c3)c2)n(C)n1` [Example 381, 1,3-dimethyl-N-(4-methyl-3-(1-methyl-5-morpholino-6-oxo-1,6-dihydropyridin-3-yl)phenyl)-1H-pyrazole-5-carboxamide], the IC50 came out at 100 nM.
Still for that read-out and setting: in the case of `Cc1ccc(NC(=O)c2cccc(C(F)(F)F)c2)cc1-c1cc(N2CCOCC2)ncn1` [Example 1, N-(4-methyl-3-(6-morpholinopyrimidin-4-yl)phenyl)-3-(trifluoromethyl)benzamide] it was 0.3 nM.
